Patent publication US20210000904A1, “NOVEL USE OF MAYDIS STIGMA EXTRACT IN PROPHYLAXIS AND THERAPY OF SLEEP DISORDER” (KONKUK UNIVERSITY GLOBAL INDUSTRY-ACADEMIC COLLABORATION …, priority 2018, published 2021)

Test system: ICR mice
Test: Caffeine sleep deprivation model with pentobarbital-induced sleep
Format: in vivo, mouse
Details: caffeine 10 mg/kg i.p., pentobarbital 42 mg/kg after 30 minutes

SMILES: Cn1c(=O)c2c(ncn2C)n(C)c1=O [caffeine]
- sleep duration decrease compared to negative control group: 1,000 seconds
- sleep onset time increase compared to negative control group: about 50 seconds
